Measurements as given in US20170231929A1, “METHOD FOR ENHANCING IMMUNE CELL FUNCTION AND METHOD FOR ASSESSING IMMUNE CELL MULTIFUNCTIONALITY” (NATIONAL UNIVERSITY CORPORATION OKAYAMA UNIVERSITY, priority 2014, published 2017).

System: CD8^+T cells
Assay: Multifunctionality of CD8^+T cells of metastatic lung cancer patients (stage IV) after metformin treatment of PBMC (flow cytometer)
Format: cell-based, human
Conditions: for Decrease, IFNγ 1-cytokine-producing cell / Decrease, IFNγ/IL-2 2-cytokine-producing cell / Decrease, IFNγ/TNFα 2-cytokine-producing cell / Decrease, IFNγ/TNFα/IL2 3-cytokine-producing cell / Increase, IFNγ 1-cytokine-producing cell / Increase, IFNγ/IL-2 2-cytokine-producing cell / Increase, IFNγ/TNFα 2-cytokine-producing cell / Increase, IFNγ/TNFα/IL2 3-cytokine-producing cell / No Change, IFNγ 1-cytokine-producing cell / No Change, IFNγ/IL-2 2-cytokine-producing cell / No Change, IFNγ/TNFα 2-cytokine-producing cell / No Change, IFNγ/TNFα/IL2 3-cytokine-producing cell: Cancer Patients (stage IV)
Procedure: 1. Peripheral blood was obtained from a test subject, and PBMC was separated by a density-gradient centrifugation using a lymphocyte-separating reagent Ficoll-Paque® (GE Healthcare). 3 mL of Ficoll-Paque® was dispensed in a 15-mL tube. 8 mL of the peripheral blood was gently placed on the reagent. At this time, care should be taken not to mix Ficoll-Paque® with the peripheral blood. Centrifugation was performed at 400 g for 30 minutes, thereby separating PBMC. 2. The separated PBMC was preserved in a −150° C. freezer or liquid nitrogen using Bambang Car cell preservation liquid by adjusting the cell number to 2.0×10^6 cell/tube. 3. In the test, the thawed PBMC was cultured for 1 to 10 hours in the presence or absence of […]. The culture was performed using a 24-well plate, and the cell number was adjusted to about 5.0×10^5 cell/well. 4. The cells were collected after 1 to 10 hours, washed with medium, and cultured in the presence of a cell activation reagent (potent nanomolar activator of protein kinase C (PMA, 50 ng/mL), ionomycin (1 μM)) for 6 hours, thereby non-specifically stimulating T cells. At this time, BD Gorgi Stop™ was added to keep the produced cytokines inside the cells. 5. The cells were isolated and washed twice with a cell-staining buffer. First, staining of CD8, PD-1, Tim-3, which are molecules expressed on the T cell surface, was performed. In the staining, a staining buffer was added in an amount of 50 μL per sample. The culture was performed at 4° C. for 30 minutes. 6. The cells were collected and washed twice with a cell-staining buffer. 500 μL of BD Cytofix/Cytoperm was added and cultured at 4° C. for 30 minutes. 7. The cells were collected and washed twice with BD Perm/Wash™. Staining of cytokines IL-2, TNFα, and IFNγ was performed. In the staining, BD Perm/Wash™ was added in an amount of 50 μL per sample. The culture was performed at 4° C. for 30 minutes. 8. The cells were collected and washed twice with BD Perm/Wash™, and 200 μL of BD Perm/Wash™ was added. 9. Analysis was performed using a FACSCanto™ II flow cytometer (Becton, Dickinson and Company).
Among the PBMC treated with PMA/ionomycin in the method shown in (2) above, first, a gate was applied to CD8^+T cells using a FACSCanto™ II flow cytometer (Becton, Dickinson and Company), and then […] were removed by FSC-A and FSC-H. Using parameters FSC-A and SSC-A, a gate was applied to a lymphocyte group, thereby analyzing expression of PD-1 and Tim-3. Further, intracellular cytokines IFNγ, TNFα, and IL-2 were stained, and multifunctionality of CD8^+T cells contained in the PBMC was analyzed (FIG. 1).
This Example analyzed test results regarding recovery of multifunctionality of CD8^+T cells by metformin in 10 healthy subjects and five metastatic lung cancer patients (stage IV) by the same method as in Example 1. As in Table 3, in Table 3, in addition to the total CD8^+T cells (total CD8T), cytokine production abilities were confirmed in four kinds of CD8^+T cells, i.e., PD-1-positive, Tim-3-negative CD8^+T cells, PD-1-positive, Tim-3-positive CD8^+T cells, PD-1-negative, Tim-3-positive CD8^+T cells, and PD-1-negative, Tim-3-negative CD8^+T cells (Table 4). Cytokine production ability refers to cytokine production ratios of three kinds of cytokines (A), IFNγ/TNFα/IL-2, two kinds of cytokines (B), IFNγ/TNFα, two kinds of cytokines (C), FNγ/IL-2, and one kind of cytokine (D), IFNγ.

With `CN(C)C(=N)N=C(N)N` [metformin] the “Decrease, IFNγ 1-cytokine-producing cell” value (PD-1+, Tim-3+, patients/total) was 1/5, the “Decrease, IFNγ/IL-2 2-cytokine-producing cell” value (PD-1+, Tim-3+, patients/total) was 1/5 and the “Decrease, IFNγ/TNFα 2-cytokine-producing cell” value (PD-1+, Tim-3+, patients/total) was 1/5. The “Decrease, IFNγ/TNFα/IL2 3-cytokine-producing cell” value (PD-1+, Tim-3+, patients/total) was 0/5, the “Increase, IFNγ 1-cytokine-producing cell” value (PD-1+, Tim-3+, patients/total) was 1/5 and the “Increase, IFNγ/IL-2 2-cytokine-producing cell” value (PD-1+, Tim-3+, patients/total) was 1/5. For the same compound, the “Increase, IFNγ/TNFα 2-cytokine-producing cell” value (PD-1+, Tim-3+, patients/total) was 1/5, the “Increase, IFNγ/TNFα/IL2 3-cytokine-producing cell” value (PD-1+, Tim-3+, patients/total) was 0/5 and the “No Change, IFNγ 1-cytokine-producing cell” value (PD-1+, Tim-3+, patients/total) was 3/5. The “No Change, IFNγ/IL-2 2-cytokine-producing cell” value (PD-1+, Tim-3+, patients/total) was 3/5, the “No Change, IFNγ/TNFα 2-cytokine-producing cell” value (PD-1+, Tim-3+, patients/total) was 3/5 and the “No Change, IFNγ/TNFα/IL2 3-cytokine-producing cell” value (PD-1+, Tim-3+, patients/total) was 5/5. For the same compound, the “Decrease, IFNγ 1-cytokine-producing cell” value (PD-1+, Tim-3−, patients/total) was 1/5, the “Decrease, IFNγ/IL-2 2-cytokine-producing cell” value (PD-1+, Tim-3−, patients/total) was 1/5 and the “Decrease, IFNγ/TNFα 2-cytokine-producing cell” value (PD-1+, Tim-3−, patients/total) was 2/5. The “Decrease, IFNγ/TNFα/IL2 3-cytokine-producing cell” value (PD-1+, Tim-3−, patients/total) was 0/5, the “Increase, IFNγ 1-cytokine-producing cell” value (PD-1+, Tim-3−, patients/total) was 0/5 and the “Increase, IFNγ/IL-2 2-cytokine-producing cell” value (PD-1+, Tim-3−, patients/total) was 4/5. The “Increase, IFNγ/TNFα 2-cytokine-producing cell” value (PD-1+, Tim-3−, patients/total) was 1/5, the “Increase, IFNγ/TNFα/IL2 3-cytokine-producing cell” value (PD-1+, Tim-3−, patients/total) was 4/5 and the “No Change, IFNγ 1-cytokine-producing cell” value (PD-1+, Tim-3−, patients/total) was 4/5. For the same compound, the “No Change, IFNγ/IL-2 2-cytokine-producing cell” value (PD-1+, Tim-3−, patients/total) was 0/5, the “No Change, IFNγ/TNFα 2-cytokine-producing cell” value (PD-1+, Tim-3−, patients/total) was 2/5 and the “No Change, IFNγ/TNFα/IL2 3-cytokine-producing cell” value (PD-1+, Tim-3−, patients/total) was 1/5. The “Decrease, IFNγ 1-cytokine-producing cell” value (PD-1−, Tim-3+, patients/total) was 2/5, the “Decrease, IFNγ/IL-2 2-cytokine-producing cell” value (PD-1−, Tim-3+, patients/total) was 3/5 and the “Decrease, IFNγ/TNFα 2-cytokine-producing cell” value (PD-1−, Tim-3+, patients/total) was 2/5. For the same compound, the “Decrease, IFNγ/TNFα/IL2 3-cytokine-producing cell” value (PD-1−, Tim-3+, patients/total) was 0/5, the “Increase, IFNγ 1-cytokine-producing cell” value (PD-1−, Tim-3+, patients/total) was 3/5 and the “Increase, IFNγ/IL-2 2-cytokine-producing cell” value (PD-1−, Tim-3+, patients/total) was 0/5. For the same compound, the “Increase, IFNγ/TNFα 2-cytokine-producing cell” value (PD-1−, Tim-3+, patients/total) was 1/5, the “Increase, IFNγ/TNFα/IL2 3-cytokine-producing cell” value (PD-1−, Tim-3+, patients/total) was 0/5 and the “No Change, IFNγ 1-cytokine-producing cell” value (PD-1−, Tim-3+, patients/total) was 0/5. The “No Change, IFNγ/IL-2 2-cytokine-producing cell” value (PD-1−, Tim-3+, patients/total) was 2/5, the “No Change, IFNγ/TNFα 2-cytokine-producing cell” value (PD-1−, Tim-3+, patients/total) was 2/5 and the “No Change, IFNγ/TNFα/IL2 3-cytokine-producing cell” value (PD-1−, Tim-3+, patients/total) was 5/5. The “Decrease, IFNγ 1-cytokine-producing cell” value (PD-1−, Tim-3−, patients/total) was 2/5, the “Decrease, IFNγ/IL-2 2-cytokine-producing cell” value (PD-1−, Tim-3−, patients/total) was 2/5 and the “Decrease, IFNγ/TNFα 2-cytokine-producing cell” value (PD-1−, Tim-3−, patients/total) was 2/5. For the same compound, the “Decrease, IFNγ/TNFα/IL2 3-cytokine-producing cell” value (PD-1−, Tim-3−, patients/total) was 0/5, the “Increase, IFNγ 1-cytokine-producing cell” value (PD-1−, Tim-3−, patients/total) was 1/5 and the “Increase, IFNγ/IL-2 2-cytokine-producing cell” value (PD-1−, Tim-3−, patients/total) was 1/5. The “Increase, IFNγ/TNFα 2-cytokine-producing cell” value (PD-1−, Tim-3−, patients/total) was 1/5, the “Increase, IFNγ/TNFα/IL2 3-cytokine-producing cell” value (PD-1−, Tim-3−, patients/total) was 2/5 and the “No Change, IFNγ 1-cytokine-producing cell” value (PD-1−, Tim-3−, patients/total) was 2/5. The “No Change, IFNγ/IL-2 2-cytokine-producing cell” value (PD-1−, Tim-3−, patients/total) was 2/5, the “No Change, IFNγ/TNFα/IL2 3-cytokine-producing cell” value (PD-1−, Tim-3−, patients/total) was 3/5 and the “Decrease, IFNγ 1-cytokine-producing cell” value (Total CD8T, patients/total) was 3/5. For the same compound, the “Decrease, IFNγ/IL-2 2-cytokine-producing cell” value (Total CD8T, patients/total) was 0/5, the “Decrease, IFNγ/TNFα 2-cytokine-producing cell” value (Total CD8T, patients/total) was 4/5 and the “Decrease, IFNγ/TNFα/IL2 3-cytokine-producing cell” value (Total CD8T, patients/total) was 0/5. The “Increase, IFNγ 1-cytokine-producing cell” value (Total CD8T, patients/total) was 0/5, the “Increase, IFNγ/IL-2 2-cytokine-producing cell” value (Total CD8T, patients/total) was 1/5 and the “Increase, IFNγ/TNFα 2-cytokine-producing cell” value (Total CD8T, patients/total) was 1/5. For the same compound, the “Increase, IFNγ/TNFα/IL2 3-cytokine-producing cell” value (Total CD8T, patients/total) was 1/5, the “No Change, IFNγ 1-cytokine-producing cell” value (Total CD8T, patients/total) was 2/5 and the “No Change, IFNγ/IL-2 2-cytokine-producing cell” value (Total CD8T, patients/total) was 4/5. For the same compound, the “No Change, IFNγ/TNFα 2-cytokine-producing cell” value (Total CD8T, patients/total) was 0/5, the “No Change, IFNγ/TNFα/IL2 3-cytokine-producing cell” value (Total CD8T, patients/total) was 4/5 and the “Increase + No Change, IFNγ/TNFα/IL2, share of patients” value (Total CD8T, Patients (stage IV)) was 100%. For the same compound, the “Increase + No Change, IFNγ/TNFα/IL2” value (Total CD8T, Patients (stage IV), patients/total) was 5/5 and the “decrease in multifunctionality by the metformin treatment (three kinds of cytokines)” value (cancer patients (stage IV)) was “very small (zero)”.
